In article PMC7409168, “The Multidrug Resistance-Reversing Activity of a Novel Antimicrobial Peptide” (Cancers, 2020):
Where two headings read alike, the source gives them in different places. Residues, ends and D or L forms follow the SMILES beside them.

Key:
KB-3-1 = experiment: MTT cytotoxicity of ABCB1 substrates with or without a reversal agent, KB-3-1; type: cell-based, human; conditions: no reversal agent; for IC50: mean ± SD, at least three independent experiments in triplicate, read-out: IC50 of the anticancer drug alone; for RF (resistant fold) of the anticancer drug alone: IC50 relative to drug alone in KB-3-1
From the text: (§1) The drug-selected ABCG2-overexpressing non-small cell lung cancer (NSCLC) cell line NCI-H460/MX20 and its parental NCI-H460 cell line, and the ABCB1 gene-transfected HEK293 cells, HEK293/ABCB1, and its parental empty vector transfected HEK293 cells, HEK293/pcDNA3.1 were provided by Drs. Susan E. Bates and Robert Robey (NIH, MD). The drug-resistant ABCB1 overexpressing human epidermal carcinoma cell line KB-C2 and its parental KB-3-1 cell line were generously provided by Dr. Shin-Ichi Akiyama (Kagoshima University, Kagoshima, Japan). All cell lines were cultured in complete Dulbecco’s modified Eagle’s medium(DMEM) (Hyclone, GE Healthcare Life Sciences, Pittsburgh, PA, USA) with the addition of 10% fetal bovine serum (FBS) and 1% penicillin/streptomycin (Hyclone, GE Healthcare Life Sciences, Pittsburgh, PA, USA). The transfected cell lines were selected in complete medium with addition of 2 mg/mL of Geneticin (Enzo Life Sciences, Farmingdale, NY, USA) for selection, KB-C2 cells were continually treated with complete medium and […], and NCI-H460/MX20 cells were cultured with 20 ng/mL mitoxantrone added to the complete medium. All drug-treated cell lines were recovered for more than 2 weeks without treatment before their use. The culture condition was in a humidified incubator at 37 °C with 5% CO2.
(§2) The final absorbance of each well was measured by Microplate Spectrophotometer (Fisher Sci., Fair Lawn, NJ, USA) at 570 nm.

KB-C2 = experiment: MTT cytotoxicity of ABCB1 substrates with or without a reversal agent, KB-C2; conditions: for RF (resistant fold) of the anticancer drug alone: IC50 in KB-C2 divided by IC50 in KB-3-1
From the text: as §1, §2

HEK293/pcDNA3.1 = experiment: MTT cytotoxicity of ABCB1 substrates with or without a reversal agent, HEK293/pcDNA3.1; type: cell-based; conditions: no reversal agent; for IC50: mean ± SD, at least three independent experiments in triplicate, read-out: IC50 of the anticancer drug alone; for RF (resistant fold) of the anticancer drug alone: relative to drug alone in HEK293/pcDNA3.1
From the text: as §1, §2

NCI-H460 = experiment: MTT cytotoxicity of ABCG2 substrates with or without a reversal agent, NCI-H460; type: cell-based, human; conditions: for IC50 / RF (resistant fold) of the anticancer drug alone: no reversal agent; for IC50: mean ± SD, at least three independent experiments in triplicate, read-out: IC50 of the anticancer drug alone; for RF (resistant fold) of the anticancer drug alone: relative to drug alone in NCI-H460
From the text: as §1, §2

NCI-H460/MX20 = experiment: MTT cytotoxicity of ABCG2 substrates with or without a reversal agent, NCI-H460/MX20; type: cell-based, human; conditions: for IC50: NCI-H460/MX20, mean ± SD, at least three independent experiments in triplicate, read-out: IC50 of the anticancer drug alone; for IC50 / RF (resistant fold) of the anticancer drug alone: no reversal agent
From the text: as §1, §2

HEK293/ABCB1 = experiment: MTT cytotoxicity of ABCB1 substrates with or without a reversal agent, HEK293/ABCB1; type: cell-based; conditions: no reversal agent; for IC50: HEK293/ABCB1, mean ± SD, at least three independent experiments in triplicate, read-out: IC50 of the anticancer drug alone; for RF (resistant fold) of the anticancer drug alone: IC50 in HEK293/ABCB1 divided by IC50 in HEK293/pcDNA3.1
From the text: as §1, §2

in vitro = conditions: human
From the text: as §1, §2

parental cells (KB-3-1) = conditions: read-out: IC50 of peptide; KB-3-1 (parental); MTT, 570 nm; at least three independent triplicate experiments
From the text: as §1, §2

parental cells NCI-H460 = conditions: read-out: IC50 of peptide, MTT, 570 nm, at least three independent experiments in triplicate
From the text: as §1, §2

ABCB1 [1] = molecular target: T1, ABCB1 (Homo sapiens, UniProt P08183); conditions: XH-14C 0–40 μM; vanadate-sensitive; phosphate read at 800 nm; three independent experiments
Experimental: The vanadate-sensitive membrane vesicles ABCB1 and ABCG2 ATPase activity were determined as previously described, and the ABCB1- and ABCG2-overexpressing cell membranes were purchased from BD Biosciences (San Jose, CA, USA). The ATPase activities were calculated based on the measurement of inorganic phosphate (IP)detected using a spectrophotometer at 800 nm.

ABCB1 on KB-C2 cells = type: cell-based, human
Experimental: (§3) [^3H]-paclitaxel (31 Ci/mmol, Moravek Biochemicals, Brea, CA, USA) was used to measure the drug accumulation and efflux as previously described. The only difference is that after the cells were seeded evenly in 24-well plate, the cells were incubated in the presence or absence of XH-14C and a parallel positive reversal agent for […]. Liquid scintillation cocktail used to measure the radioactivity was purchased from MP Biomedicals, Inc (St. Ana, CA, USA) and the radioactivity of different groups were read with the Packard TRI-CARB1 190‘A liquid scintillation analyzer. A parallel well of cells for each group was set up for cell number counting at the end of the assay for the purpose of data normalization.

[2] = test system: ABCB1-overexpressing KB-C2 cells; type: cell-based, human
Experimental: as §3

KB-3-1 cells = experiment: [3H]-paclitaxel efflux assay in KB-3-1; type: cell-based, human; conditions: 2 h, with or without a reversal agent
Experimental: as §3

ABCB1 [3] = molecular target: T1, ABCB1; design: purchased BD Biosciences (San Jose, CA, USA); method as in PMID 25456855; conditions: non-competitive inhibitor; cited from earlier work
[4] = Homo sapiens, KB-C2, read-out: IC50 of the anticancer drug alone
[5] = IC50 in NCI-H460/MX20 divided by IC50 in NCI-H460
[6] = KB-C2 cells (ABCB1-overexpressing human epidermal carcinoma)
[7] = NCI-H460/MX20 cells (ABCG2-overexpressing NSCLC)

T1 sequence (P08183 whole entry): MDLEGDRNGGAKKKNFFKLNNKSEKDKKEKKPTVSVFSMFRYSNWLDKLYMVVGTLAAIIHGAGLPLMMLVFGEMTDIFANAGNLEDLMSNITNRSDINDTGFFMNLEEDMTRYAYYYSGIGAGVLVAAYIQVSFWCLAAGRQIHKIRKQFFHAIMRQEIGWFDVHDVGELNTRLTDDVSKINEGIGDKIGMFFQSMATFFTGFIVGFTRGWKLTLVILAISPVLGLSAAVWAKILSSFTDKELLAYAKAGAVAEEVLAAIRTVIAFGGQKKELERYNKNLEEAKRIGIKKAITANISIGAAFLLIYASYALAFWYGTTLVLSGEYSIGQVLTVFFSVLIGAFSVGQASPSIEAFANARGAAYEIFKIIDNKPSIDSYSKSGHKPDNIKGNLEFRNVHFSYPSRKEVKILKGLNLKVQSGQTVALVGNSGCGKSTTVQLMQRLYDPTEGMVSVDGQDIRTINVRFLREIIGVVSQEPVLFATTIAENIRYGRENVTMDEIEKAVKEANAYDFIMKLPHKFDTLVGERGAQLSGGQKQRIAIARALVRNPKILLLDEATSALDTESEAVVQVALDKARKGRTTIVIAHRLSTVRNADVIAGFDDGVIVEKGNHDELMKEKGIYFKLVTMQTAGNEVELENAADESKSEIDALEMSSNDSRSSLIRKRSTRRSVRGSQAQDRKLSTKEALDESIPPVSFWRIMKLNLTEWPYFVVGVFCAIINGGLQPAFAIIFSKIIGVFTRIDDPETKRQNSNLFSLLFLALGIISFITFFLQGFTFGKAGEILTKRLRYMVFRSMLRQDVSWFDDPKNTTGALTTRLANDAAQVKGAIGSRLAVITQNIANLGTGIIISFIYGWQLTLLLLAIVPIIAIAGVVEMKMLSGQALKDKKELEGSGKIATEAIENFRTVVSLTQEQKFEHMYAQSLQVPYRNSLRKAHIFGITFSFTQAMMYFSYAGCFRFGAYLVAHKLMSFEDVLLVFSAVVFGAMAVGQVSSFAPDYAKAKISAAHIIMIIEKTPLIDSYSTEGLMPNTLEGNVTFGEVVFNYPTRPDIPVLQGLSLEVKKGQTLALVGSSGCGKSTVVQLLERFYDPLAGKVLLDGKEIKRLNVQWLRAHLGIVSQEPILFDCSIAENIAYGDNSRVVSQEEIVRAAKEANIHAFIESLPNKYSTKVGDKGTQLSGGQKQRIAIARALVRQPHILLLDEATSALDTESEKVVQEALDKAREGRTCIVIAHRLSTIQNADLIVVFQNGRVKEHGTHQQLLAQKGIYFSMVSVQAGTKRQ

N.N.[Cl][Pt][Cl] [Cisplatin, cisplatin]
IC50 (KB-3-1): 1640 ± 487 nM
IC50 (KB-C2; read-out: IC50 of the anticancer drug alone, KB-C2, no reversal agent, mean ± SD, at least three independent experiments in triplicate): 1760 ± 377 nM
IC50 (HEK293/pcDNA3.1): 2280 ± 489 nM
IC50 (NCI-H460): 2760 ± 230 nM
IC50 (NCI-H460/MX20): 3.15 ± 0.47 µM

COc1cccc2c1C(=O)c1c(O)c3c(c(O)c1C2=O)C[C@@](O)(C(=O)CO)C[C@@H]3O[C@H]1C[C@H](N)[C@H](O)[C@H](C)O1 [Doxorubicin, doxorubicin]
IC50 (KB-3-1; Homo sapiens): 1280 ± 189 nM
RF (resistant fold) of the anticancer drug alone (KB-3-1): 1.00
IC50 (KB-C2; [4]): 67600 ± 2460 nM
RF (resistant fold) of the anticancer drug alone (KB-C2; no reversal agent): 53.0
IC50 (HEK293/pcDNA3.1; Homo sapiens): 1226 ± 1.88 nM
RF (resistant fold) of the anticancer drug alone (HEK293/pcDNA3.1): 1.00
IC50 (HEK293/ABCB1): 32.6 ± 4.81 µM
RF (resistant fold) of the anticancer drug alone (HEK293/ABCB1): 26.6

COc1ccc2c3c([nH]c2c1)[C@H](CC(C)C)N1C(=O)[C@H](CCC(=O)OC(C)(C)C)NC(=O)[C@@H]1C3 [Ko143]
RF of cisplatin in combination with reversal agent (NCI-H460; cisplatin + reversal agent 3 μM, relative to NCI-H460): 1.26
RF of mitoxantrone in combination with reversal agent (NCI-H460; mitoxantrone + reversal agent 3 μM, relative to NCI-H460): 1.10
RF of topotecan in combination with reversal agent (NCI-H460; topotecan + reversal agent 3 μM, relative to NCI-H460): 0.76
RF of cisplatin in combination with reversal agent (NCI-H460/MX20; cisplatin + reversal agent 3 μM, IC50 in NCI-H460/MX20 divided by IC50 in NCI-H460): 1.23
RF of mitoxantrone in combination with reversal agent (NCI-H460/MX20; mitoxantrone + reversal agent 3 μM, IC50 in NCI-H460/MX20 divided by IC50 in NCI-H460): 2.28
RF of topotecan in combination with reversal agent (NCI-H460/MX20; topotecan + reversal agent 3 μM, IC50 in NCI-H460/MX20 divided by IC50 in NCI-H460): 1.96

O=C1c2c(O)ccc(O)c2C(=O)c2c(NCCNCCO)ccc(NCCNCCO)c21 [Mitoxantrone, mitoxantrone]
IC50 (NCI-H460; Homo sapiens): 39 ± 5 nM
RF (resistant fold) of the anticancer drug alone (NCI-H460): 1.00
IC50 (NCI-H460/MX20; Homo sapiens): 36.6 ± 4.53 µM
RF (resistant fold) of the anticancer drug alone (NCI-H460/MX20; [5]): 937

CC(=O)O[C@H]1C(=O)[C@@]2(C)[C@H]([C@H](OC(=O)c3ccccc3)[C@]3(O)C[C@H](OC(=O)[C@H](O)[C@@H](NC(=O)c4ccccc4)c4ccccc4)C(C)=C1C3(C)C)[C@]1(OC(C)=O)CO[C@@H]1C[C@@H]2O [Paclitaxel, paclitaxel]
IC50 (KB-3-1; Homo sapiens): 3 ± 0.5 nM
RF (resistant fold) of the anticancer drug alone (KB-3-1): 1.00
IC50 (KB-C2; [4]): 1310 ± 271 nM
RF (resistant fold) of the anticancer drug alone (KB-C2; no reversal agent): 437
IC50 (HEK293/pcDNA3.1; Homo sapiens): 14.3 ± 1.53 nM
RF (resistant fold) of the anticancer drug alone (HEK293/pcDNA3.1): 1.00
IC50 (HEK293/ABCB1): 0.306 ± 0.0454 µM
RF (resistant fold) of the anticancer drug alone (HEK293/ABCB1): 21.38

CC[C@@]1(O)C(=O)OCc2c1cc1n(c2=O)Cc2cc3c(CN(C)C)c(O)ccc3nc2-1 [Topotecan, topotecan]
IC50 (NCI-H460; Homo sapiens): 49 ± 6 nM
RF (resistant fold) of the anticancer drug alone (NCI-H460): 1.00
IC50 (NCI-H460/MX20; Homo sapiens): 39.2 ± 4.85 µM
RF (resistant fold) of the anticancer drug alone (NCI-H460/MX20; [5]): 799

CC[C@H](C)[C@H](NC(=O)[C@H](CCCNC(=N)N)NC(=O)[C@H](CCCCN)NC(=O)[C@@H](NC(=O)[C@@H](N)Cc1ccccc1)[C@@H](C)CC)C(=O)N[C@@H](C)C(=O)N[C@@H](CCCNC(=N)N)C(=O)N[C@@H](CC(C)C)C(=O)N[C@@H](CC(C)C)C(=O)N[C@@H](CCCNC(=N)N)C(=O)N[C@@H](CCCCN)C(=O)N[C@H](C(=O)N[C@@H](CCCCN)C(=O)N[C@@H](CCCNC(=N)N)C(=O)O)[C@@H](C)CC [XH-14A] (H-FIKRIARLLRKIKR-OH)
IC50 (in vitro; [6]): 22.4 µM
IC50 (in vitro; [7]): 8.22 µM
IC50 (parental cells (KB-3-1)): 8.73 µM
IC50 (parental cells NCI-H460): 10.1 µM

CC[C@H](C)[C@H](NC(=O)[C@H](CCCNC(=N)N)NC(=O)[C@H](CCCCN)NC(=O)[C@@H](NC(=O)[C@@H](N)Cc1ccccc1)[C@@H](C)CC)C(=O)N[C@@H](C)C(=O)N[C@@H](CCCNC(=N)N)C(=O)N[C@@H](CC(C)C)C(=O)N[C@@H](CC(C)C)C(=O)N[C@@H](CCCNC(=N)N)C(=O)N[C@@H](CCCCN)C(=O)N[C@H](C(=O)N[C@@H](Cc1ccccc1)C(=O)N[C@@H](CCCNC(=N)N)C(=O)O)[C@@H](C)CC [XH-14B] (H-FIKRIARLLRKIFR-OH)
IC50 (in vitro; [6]): 8.38 µM
IC50 (in vitro; [7]): 7.28 µM
IC50 (parental cells (KB-3-1)): 10 µM
IC50 (parental cells NCI-H460): 9.37 µM

CC[C@H](C)[C@H](NC(=O)[C@H](CCCNC(=N)N)NC(=O)[C@H](CCCCN)NC(=O)[C@@H](NC(=O)[C@@H](N)Cc1ccccc1)[C@@H](C)CC)C(=O)N[C@@H](C)C(=O)N[C@@H](CCCNC(=N)N)C(=O)N[C@@H](CC(C)C)C(=O)N[C@@H](CC(C)C)C(=O)N[C@@H](CCCNC(=N)N)C(=O)N[C@@H](CCCCN)C(=O)N[C@H](C(=O)N[C@@H](Cc1c[nH]c2ccccc12)C(=O)N[C@@H](CCCNC(=N)N)C(=O)O)[C@@H](C)CC [XH-14C] (H-FIKRIARLLRKIWR-OH)
IC50 (in vitro; [6]): 7.82 µM
IC50 (in vitro; [7]): 8.3 µM
IC50 (parental cells (KB-3-1)): 8.12 µM
IC50 (parental cells NCI-H460): 9.07 µM
effect on cytotoxicity of cisplatin (KB-C2; non-substrate of ABCB1, all tested cell lines): no effect on the cytotoxicity of cisplatin
maximal stimulation of ABCB1 ATPase activity (ABCB1 [1]): 3.28 fold

CC(=O)O[C@H]1C(=O)[C@@]2(C)[C@H]([C@H](OC(=O)c3ccccc3)[C@]3(O)C[C@H](OC(=O)[C@H](O)[C@@H](NC(=O)c4ccccc4)c4ccccc4)C(C)=C1C3(C)C)[C@]1(OC(C)=O)CO[C@@H]1C[C@@H]2O [[^3H]-paclitaxel]
decrease in intracellular [3H]-paclitaxel (efflux) without XH-14C (ABCB1 on KB-C2 cells): about 50%
intracellular [3H]-paclitaxel in KB-C2, fold lower than in KB-3-1 [2]: more than 100 fold
change of cellular [3H]-paclitaxel in KB-3-1 (KB-3-1 cells): did not significantly change

COc1cc2c(cc1OC)CN(CCc1ccc(NC(=O)c3cc(OC)c(OC)cc3NC(=O)c3cnc4ccccc4c3)cc1)CC2 [tariquidar]
ABCB1 ATPase stimulation (ABCB1 [3]): able to stimulate ABCB1 ATPase activity
